Measurements from ChEMBL document CHEMBL1155627, “HIV-Inhibitory prenylated xanthones and flavones from Maclura tinctoria” (J Nat Prod, 2000).
≈ marks a conversion by molar mass, not a printed value. Calls of active or inactive are those of the source. The calls are words filed in the database; no cut-off is given here.

Tests used:
[1] = tested on: Human immunodeficiency virus 1; experiment: Antiviral activity against HIV1; type: functional, organism-based
[2] = tested on: CEM-SS; experiment: Cytotoxicity against human CEM-SS cells; type: cell-based

Row | EC50 [1] | Structure (SMILES) | Activity [1] | IC50 [2]
1 |  | CC(C)=CCc1c(O)c(CC=C(C)C)c2oc3c(O)cccc3c(=O)c2c1O [8-DEOXYGARTANIN] | inactive | 4.9 µg/mL (≈ 12.9 µM)
2 |  | CC(C)=CCc1c(O)cc2oc(-c3ccc(O)cc3O)c(CC=C(C)C)c(=O)c2c1O [CUDRAFLAVONE C] | inactive | 5 µg/mL (≈ 11.8 µM)
3 |  | CC(C)=CCc1c(-c2ccc(O)cc2O)oc2cc3c(c(O)c2c1=O)CCC(C)(C)O3 [DIHYDROCUDRAFLAVONE B] | inactive | 12 µg/mL (≈ 28.4 µM)
4 |  | CC(C)=CCc1c(O)c(CC=C(C)C)c2oc3c(O)ccc(O)c3c(=O)c2c1O [GARTANIN] | inactive | 5.3 µg/mL (≈ 13.4 µM)
5 | 7.5 µg/mL (≈ 17.8 µM) | CC(C)=CCc1c(O)cc2oc3c(c(=O)c2c1O)C(C=C(C)C)Oc1cc(O)ccc1-3 (centres undefined) [ISOCYCLOMULBERRIN] |  | 17 µg/mL (≈ 40.4 µM)
6 | 1 µg/mL (≈ 2.52 µM) | C=CC(C)(C)c1c(O)c(CC=C(C)C)c2oc3cc(O)c(O)cc3c(=O)c2c1O [MACLURAXANTHONE B] |  | 2.2 µg/mL (≈ 5.55 µM)
7 | 1.3 µg/mL (≈ 3.28 µM) | C=CC(C)(C)c1c(O)c(CC=C(C)C)c2oc3c(O)c(O)ccc3c(=O)c2c1O [MACLURAXANTHONE C] |  | 3.7 µg/mL (≈ 9.33 µM)
